Assay [1] concerns the target T1, mGlu5 (Homo sapiens, UniProt P41594). Description: standard mGlu5 calcium mobilization functional assay, human mGlu5. In kind it is cell-based. To be noted: for EC50: EC50 (PAM). (In general: Calcium flux is commonly read through the fluorescence of an indicator in the cells.)
Assay [2] concerns the target T1, mGlu5. The assay can be described thus: standard mGlu5 calcium mobilization functional assay, PAM and NAM modes. In kind it is cell-based.
Assay [3] concerns the target T1, mGlu5. To be noted: Figure 1 ref 14; cited from earlier work.
The mark [4] stands for this setting: human mGlu5 assay, synthetic material.

Structures are written as SMILES.

T1 sequence (P41594 21-1212): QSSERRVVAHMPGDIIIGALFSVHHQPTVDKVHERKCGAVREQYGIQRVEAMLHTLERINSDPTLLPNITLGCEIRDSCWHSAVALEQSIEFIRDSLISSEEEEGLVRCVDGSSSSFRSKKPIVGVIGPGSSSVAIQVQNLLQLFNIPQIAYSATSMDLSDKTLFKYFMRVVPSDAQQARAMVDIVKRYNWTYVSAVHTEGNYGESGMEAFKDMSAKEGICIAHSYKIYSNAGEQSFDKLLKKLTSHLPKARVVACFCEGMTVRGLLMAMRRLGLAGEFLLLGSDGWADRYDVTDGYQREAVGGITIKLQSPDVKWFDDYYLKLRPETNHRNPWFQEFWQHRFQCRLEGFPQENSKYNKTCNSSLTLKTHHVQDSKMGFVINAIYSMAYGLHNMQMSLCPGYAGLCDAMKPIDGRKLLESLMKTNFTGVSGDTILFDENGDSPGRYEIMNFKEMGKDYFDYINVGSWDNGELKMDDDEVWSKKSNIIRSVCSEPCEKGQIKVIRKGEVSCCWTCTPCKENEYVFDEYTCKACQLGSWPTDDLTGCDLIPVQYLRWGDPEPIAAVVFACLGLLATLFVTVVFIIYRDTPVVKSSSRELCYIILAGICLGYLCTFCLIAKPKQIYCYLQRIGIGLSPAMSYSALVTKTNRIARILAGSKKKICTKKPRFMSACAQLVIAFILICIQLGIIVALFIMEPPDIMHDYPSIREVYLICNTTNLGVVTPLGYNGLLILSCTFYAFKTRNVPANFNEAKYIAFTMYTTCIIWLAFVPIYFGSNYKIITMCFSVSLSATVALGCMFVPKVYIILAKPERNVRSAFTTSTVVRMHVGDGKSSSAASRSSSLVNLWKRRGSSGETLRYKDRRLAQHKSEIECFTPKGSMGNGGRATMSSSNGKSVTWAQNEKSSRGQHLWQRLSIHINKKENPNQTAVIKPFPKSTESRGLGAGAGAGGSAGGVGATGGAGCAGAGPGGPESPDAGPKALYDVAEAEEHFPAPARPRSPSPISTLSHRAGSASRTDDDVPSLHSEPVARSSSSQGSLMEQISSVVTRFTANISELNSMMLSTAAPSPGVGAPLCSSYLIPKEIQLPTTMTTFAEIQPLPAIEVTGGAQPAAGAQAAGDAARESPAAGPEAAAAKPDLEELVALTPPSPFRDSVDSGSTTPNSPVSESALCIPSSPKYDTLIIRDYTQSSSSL

Regarding `NC(=O)c1ccc(C#Cc2cccc(F)c2)cn1` [M4, 5-((3-Fluorophenyl)ethynyl)picolinamide], in assay [1] (kit-produced M4, human mGlu5 assay, material from the BMO production kit), the EC50 (in general, the concentration needed to bring the measured effect to its halfway point) was 510 nM. Further, the EC50 in assay [1] (synthetic-derived M4, human mGlu5 assay, synthetic material) worked out at 315 nM. For the same molecule, the “% Glu Max, kit-produced M4” value in assay [1] (human mGlu5 assay, material from the BMO production kit) amounted to 75 % Glu Max. In addition, in assay [1] (setting [4]), the “% Glu Max, synthetic-derived M4” value is 77% and the “agonism (no agonism noted up to), synthetic-derived M4” value was > 30 µM.
For `O=C(C(=O)c1cccc(F)c1)c1ccc(C(=O)NC2CCC2)nc1` [M5, N-Cyclobutyl-5-(2-(3-fluorophenyl)-2-oxoacetyl)picolinamide], in assay [2], the “activity in NAM mode” value is “inactive” and the “activity in PAM mode” value was “inactive”.
As to `O=C(c1ccc(C(=O)NC2CCC2)nc1)c1cccc(F)c1` [M6, N-Cyclobutyl-5-(3-fluorobenzoyl)picolinamide], in assay [2], the “activity in NAM mode” value was “inactive” and the “activity in PAM mode” value was “inactive”.
As for `O=C(O)c1ccc(C#Cc2cccc(F)c2)cn1` [compound 3, 5-((3-Fluorophenyl)ethynyl)picolinic Acid], in assay [3], the “activity of metabolite M2, the product of amide hydrolysis” value was “inactive”.

The values above are taken from publication PMC6690571 (ACS Omega, 2019).
